Test system: itch patients treated with hemodialysis
Assay: Oral administration of compound 1 soft capsules to itch patients treated with hemodialysis; skin properties and itching observed
[1] = one of the patients, after end of administration

CN(C(=O)/C=C/c1ccoc1)[C@@H]1CC[C@@]2(O)[C@H]3Cc4ccc(O)c5c4[C@@]2(CCN3CC2CC2)[C@H]1O5.Cl [compound 1]
itching [1]: began to feel itching again
skin moisture [1]: began to have dry skin
itching (patient, two capsules (5.0 μg) oral, after start of administration): began to feel less itching

Source: patent publication US20100222309A1, “SKIN PROPERTY-IMPROVING THERAPEUTIC AGENT COMPRISING A MORPHINAN DERIVATIVE OR ANY OF ITS PHARMACOLOGICALLY PERMISSIBLE ACID ADDITION SALTS AS AN ACTIVE INGREDIENT” (TORAY INDUSTRIES, INC., priority 2007, published 2010)
